# Reference: patent publication US7329798B2, “Harvest-inducible regulatory elements and methods of using same” (University of Guelph, priority 2002, dated 2008)
# How the values were obtained:
# [1] = system: H7 regulatory region fused to GUS reporter gene in transgenic tobacco callus; assay: In vitro induction of GUS expression by ABA in callus (histochemical GUS assay); format: cell-based, tobacco (cultivar PetH4); settings: callus on solid media pH 5.0 with 40 μM ABA, 2 days, 25° C.
# Excerpt: (§1) In order to test induction of the expression of transgenes using abscisic acid (ABA), the H7 promoter was fused to the beta-glucuronidase (GUS) reporter gene and histochemical assays conducted for GUS gene activity, which results in a blue colour in plant tissue (Jefferson et al., 1987, EMBO J. 6:3901-7). The promoter region for the H7 (nucleotides 1-634 of FIG. 8; SEQ ID NO:4) was fused to the 5′ terminus of the GUS gene in the binary vector pB1101 (Jefferson et al., 1987, EMBO J. 6:3901-7, FIG. 1a), as described in Example 4.
# (§2) Transgenic plants were grown to maturity, but prior to flowering, in a greenhouse at 23-25° C., with supplemental light to provide an approximately 16 h photoperiod and with 20-20-20 fertilizer as required.
# Leaf discs were cut and surface sterilized using 3.5% bleach for 20 min, then washed with ethanol and rinsed three times with distilled water. The washed discs were plated in Petri dishes on original callusing media (MS medium supplemented with vitamins, 2.0 mg/L NAA, 0.2 mg/L BAP pH 5.8, 7 g/L agar solid media and 100 mg/L kanamycin). The Petri dishes were then placed in a dark incubator at 25° C. for 3 days. Following dark incubation, plated discs were then incubated at 25° C. with a 16 h photoperiod for 2-3 weeks.
# Over this time, abundant callus (white or pale green) are formed, overgrowing the original tissue. […]
# [2] = system: H7 regulatory region fused to GUS reporter gene in transgenic tobacco plants; assay: In planta induction of GUS expression by ABA (histochemical GUS assay); format: in vivo, tobacco (cultivar PetH4); settings: plants sprayed with 25-50 mL 6.0 AM ABA in distilled water with Tween-20, left 24 h; non-treated plants exhibited no GUS activity
# Experimental: Tobacco leaves from regenerated plants grown in the greenhouse, and leaves and stems from M. truncatula plants grown from the cocultivated seedlings were incubated in the X-gluc substrate and the green pigments removed for visualization of the blue precipitate resulting from GUS enzyme activity (Jefferson et al., 1987, EMBO J. 6:3901-7).
# as §1
# The binary vector was transferred tobacco plants (cultivar PetH4) using Agrobacterium tumefaciens, as previously described in Example 4.
# as §2
# Plants were sprayed with 25-50 mL 6.0 AM ABA (trans isomers ABA, Sigma) in distilled water, with a drop of Tween™-20 until the leaves were dripping. […]
structure (smiles),measurement,setting,value
"CC1=CC(=O)CC(C)(C)[C@@]1(O)/C=C/C(C)=C\C(=O)O [ABA, abscisic acid]",GUS expression in callus,[1],GUS is expressed in the callus
same,GUS activity in leaves,[2],GUS activity was detected
